From patent publication US4954156A, “N,N-dihalo-2-imidazolidinones and N-halo-2-oxazolidinones as urease and nitrification inhibitors” (Tennessee Valley Authority, priority 1989, dated 1990)
Several values for one entry are separate records, joined by “and”; a condition that tells them apart may be missing. Equal values may be shown once.

What was measured:
[1] = tested on: soil urease (urease-active Hastings silt loam soil); assay: Banded soil system urease inhibition test (Hastings silt loam); details: 410 mg urea + 41 mg inhibitor
Procedure: (§1) Embodiment 1: Urease activity of inhibitor test compounds may be evaluated either in aqueous or in soil systems. When aqueous systems are used, urea plus a test compound with possible urease inhibition activity and relatively pure urease enzyme are incubated together to determine the effects of the test compound on urease-catalyzed hydrolysis of urea. When soil systems are used, urea and the test compound are added to moist soil, and the urease enzyme is supplied from the soil. The main disadvantage of using soil systems is that the true activity of test compounds may be masked because of reactions between the test compound and soil. Thus, basic studies for understanding chemical structure-activity relationships are usually done in aqueous systems.
Soil System Test Procedure: The soil system test procedure used was a modification of the previous procedures of other researchers L. A. Douglas and J. M. Bremner, Soil Biol. Biochem. 3, 309-315 (1971) and J. M. Bremner and R. L. Mulvaney, "Urease Activity in Soils," Soil Enzymes 5, R. G. Burns, editor, Academic Press, 149-195 (1978)]. In this modified procedure powdered mixtures of urea and test compounds were applied in narrow bands in the soil rather than being mixed throughout the soil. The banded configuration also results in concentration gradients of urea, urea hydrolysis products, test compounds, and test compound decomposition products similar to those in the immediate vicinity of urea granules containing the test compounds. Another advantage of the banded configuration compared with mixing throughout the soil is that slightly soluble test compounds can be easily band applied, whereas it is difficult to achieve a known degree of mixing of a small quantity of slightly soluble test compound with soil. The banded configuration also enables testing for urease inhibition under realistic soil conditions prior to the development of techniques for cogranulating a wide range of test compounds with urea.
A detailed description of the banded soil testing procedure follows. Urease-active soil (Hastings silt loam) was moistened to a moisture content of 20 percent dry weight basis) and preincubated at room temperature for two days. Plexiglas containers (6×6×6 cm) were half filled with soil and packed to a bulk density of 1.0 g/cm . Urea (410 mg) or urea (410 mg) plus inhibitor (41 mg, thoroughly mixed with the urea) was distributed in a narrow band about 0.5 cm wide and 6 cm long on the soil surface. The containers then were filled with soil, again packing to a bulk density of 1.0 g/cm^3. The containers were incubated at 25° C. for the desired reaction period, after which the containers were frozen to about -5° C. to stop urea hydrolysis. Immediately prior to extracting the remaining urea from the soil, said soil was allowed to thaw. Soil from each container was thoroughly mixed, and a 10-g sample was extracted with 100 ml of 2 M KCl containing phenylmercuric acetate to prevent urea hydrolysis during handling [L. A. Douglas and J. M. Bremner, Soil. Sci. Soc. Am. Proc. 34, 859-862 (1970)]. Urea in the extracts was determined colorimetrically as a measure of unhydrolyzed urea and the results expressed as percent unhydrolyzed urea-N.
^a The plexiglas containers measured 6 × 6 × 6 cm.
Hastings silt loam soil was utilized and packed to a bulk density of 1
gm/cm^3 dry basis. The soil was wet to near field capacity (20%
moisture) and 260 g of wetted soil (216 g dry soil) was added per
container. The containers were packed half full, urea and inhibitor were
added, and the remaining soil was added. The amount of urea added = 410 m

[2] = tested on: nitrification of ammonium nitrogen in soil; assay: Soil nitrification inhibition test (Mountainview silt loam, banded); details: for % inhibition (nitrification) / Net mg NO2N / Net mg NO3N: 25° C, 410 mg urea + 41 mg inhibitor; for Nitrite accumulation in the soil: during the 5 weeks incubation, greater than with dicyandiamide
Procedure: Embodiment 2: The N-Halamine compounds were tested for nitrification inhibition using the soil testing procedure described below.
Mountainview silt loam soil was screened through a 2 mm sieve. Plexiglas containers (8×8×6 cm) were packed half full with the soil and packed to a bulk density of 1.0 g/cm^3 and wetted to field capacity (approximately 20 weight percent moisture). The urea 410 mg per container) and inhibitor (41 mg per container) were added in a narrow band (0.5 cm wide X 6 cm long), and additional soil was added to fill the containers. The total amount of dry soil added was 384 g. The containers were incubated at 25° C. During incubation the containers were checked periodically for moisture loss and additional water added as needed to maintain moisture levels.
The individual containers were removed from the incubator at 1, 2, 3, 4, and 5 week intervals. After removal from the incubator the contents of the container were transferred to a plastic bag and thoroughly mixed. A 10-g sample of soil (dry basis) was taken from the bag and extracted with 100 ml of 2 N KCL. The extract was filtered through Whatman #41 filter paper and refrigerated until analyzed. Samples were analyzed for NO3-N- NO2-N- and urea-N using a colorimetric procedure. Some samples also were analyzed for NH4-N.
The percent nitrification inhibition was calculated according to the method of Bundy and Bremner [G. L. Bundy and J. M. Bremner, Soil Sci. Soc. Am. Proc. 37, 396-398 (1973)]
% nitrification inhibition=[(C-S)/C]×100
where C=net amount of NO3-N produced in the control (no inhibitor added), and S=net amount of NO3-N produced in the inhibitor treated sample.
^a Concentrations are in net mg/container. All containers had 384 g
soil (dry), 410 mg urea (188.6 mg N) and 41 mg inhibitor. Samples were
extracted 10 g → 100 mls 2N KCl. The formulas used for calculation
where C = net NO3N produced in control (no inhibitor), S = net
NO3N produced in inhibitor treated sample, net NO3N =
(NO3N) - (soil NO3N), and net NO2N = (NO2N) - (soil
NO2N). Values are averages of two replicate samples.

[3] = target: purified Jack Bean urease (Canavalia ensiformis, UniProt P07374); assay: Aqueous system (pH stat) urease inhibition test; format: biochemical; details: 25° C
Sequence of purified Jack Bean urease (P07374 whole entry, looked up): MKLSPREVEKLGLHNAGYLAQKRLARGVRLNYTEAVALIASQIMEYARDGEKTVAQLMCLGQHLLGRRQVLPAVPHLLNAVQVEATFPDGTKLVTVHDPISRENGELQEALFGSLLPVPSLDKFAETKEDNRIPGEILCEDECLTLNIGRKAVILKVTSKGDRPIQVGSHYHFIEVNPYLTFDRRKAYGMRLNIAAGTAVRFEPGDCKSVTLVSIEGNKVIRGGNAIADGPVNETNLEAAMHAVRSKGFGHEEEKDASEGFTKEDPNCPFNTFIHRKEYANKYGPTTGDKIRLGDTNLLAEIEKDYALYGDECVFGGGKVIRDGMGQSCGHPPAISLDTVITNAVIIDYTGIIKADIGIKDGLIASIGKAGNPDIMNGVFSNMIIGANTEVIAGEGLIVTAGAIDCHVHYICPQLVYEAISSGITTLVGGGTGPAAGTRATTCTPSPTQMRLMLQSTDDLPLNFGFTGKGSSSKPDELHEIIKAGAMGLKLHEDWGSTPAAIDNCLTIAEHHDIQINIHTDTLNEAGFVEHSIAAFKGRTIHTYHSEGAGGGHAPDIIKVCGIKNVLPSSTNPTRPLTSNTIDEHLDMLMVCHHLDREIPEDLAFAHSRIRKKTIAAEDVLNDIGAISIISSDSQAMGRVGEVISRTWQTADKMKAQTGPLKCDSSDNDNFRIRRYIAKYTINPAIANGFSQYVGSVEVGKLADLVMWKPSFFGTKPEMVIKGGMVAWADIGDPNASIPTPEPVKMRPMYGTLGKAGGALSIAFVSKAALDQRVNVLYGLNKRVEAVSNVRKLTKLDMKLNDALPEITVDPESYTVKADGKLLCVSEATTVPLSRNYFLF
Procedure: as §1
Aqueous System (pH Stat) Test Procedure: The aqueous system urease inhibition tests were conducted at 25° C using purified Jack Bean urease enzyme, 50,000-80,000 units per gram, a unit of urease will liberate 1 umole of NH3 from urea per minute at pH 7.0 at 25° C.
An appropriate amount of inhibitor [such as 37.0 uL (microliters) of a 1.169×10^(-3) M (moles/liter) inhibitor solution] and 100 uL of a solution of 13.9130 mg Jack Bean urease enzyme in 10.00 mL of water were diluted to 25.00 mL. This combined solution was allowed to sit undisturbed at 23° C. for twenty (20) minutes. Then 20.0 uL of a preservative solution was added to prevent degradation of the urease enzyme during the course of the experiment. The preservative solution contained 5.655×10^-4 moles/liter ethylenediaminetetraacetic acid (disodium salt) and 1.166×10^-3) moles/liter dithiothreitol.
Immediately after the addition of the preservative solution to the inhibitor/urease solution, 800 uL of a 0.1246 M urea solution was added and a computer assisted titrimeter was started. This titrimeter maintained a constant pH of 6.97 during the course of the experiment by neutralizing the ammonia (resulting from urease hydrolysis of urea) with 0.01142 M hydrochloric acid (HCl). The volume (measured to 0.001 mL) of HCl added was automatically recorded every 15 seconds for up to 20.0 minutes or until a total volume of 2.500 mL of HCl was added.
Experiments also were conducted without inhibitor (blank) and with the inhibitor PPDA for comparison. The experiments were replicated, and the percent inhibition for each of the inhibitors at the various concentrations was calculated as follows:
% inhibition=(kinhibitor /kblank)×100 (4)
where kinhibitor and kblank are the average rates of HCl addition for the inhibitor and blank experiments, respectively. The rates of HCl addition were calculated by linear regression of the titration curves.

CC1(C)N(Br)C(=O)N(Br)C1(C)C [AB, 1,3-dibromo-4,4,5,5-tetramethyl-2-imidazolidinone]
% unhydrolyzed urea-N ([1]; 3 days incubation at 25° C): 70.59% and 70.6%
PPM urea-N ([1]; 3 days incubation at 25° C): 62.5 PPM
% unhydrolyzed urea-N ([1]; 6 days incubation at 25° C): 15.02% and 15.0%
PPM urea-N ([1]; 6 days incubation at 25° C): 13.3 PPM
% inhibition (nitrification) ([2]; 1 week): 100.0%
Net mg NO2N ([2]; 1 week): -0.05 mg/container
Net mg NO3N ([2]; 1 week): 0.0 mg/container
% inhibition (nitrification) ([2]; 2 weeks): 100.0%
Net mg NO2N ([2]; 2 weeks): 0.04 mg/container
Net mg NO3N ([2]; 2 weeks): 0.0 mg/container
% inhibition (nitrification) ([2]; 3 weeks): 100.0%
Net mg NO2N ([2]; 3 weeks): 0.03 mg/container
Net mg NO3N ([2]; 3 weeks): 0.0 mg/container
% inhibition (nitrification) ([2]; 4 weeks): 100.0%
Net mg NO2N ([2]; 4 weeks): 0.82 mg/container
Net mg NO3N ([2]; 4 weeks): 0.0 mg/container
% inhibition (nitrification) ([2]; 5 weeks): 98.3%
Net mg NO2N ([2]; 5 weeks): 2.63 mg/container
Net mg NO3N ([2]; 5 weeks): 3.1 mg/container
Nitrite accumulation in the soil [2]: well within plant tolerance levels

NP(N)(=O)Oc1ccccc1 [PPDA, Phenyl phosphorodiamidate, reference compound]
% urease inhibition ([3]; inhibitor 0.108 x 10^-8 moles/experiment): 99%
% urease inhibition ([3]; inhibitor 0.216 x 10^-8 moles/experiment): 100%
% unhydrolyzed urea-N ([1]; 3 days incubation at 25° C): 94.31% and 94.3%
PPM urea-N ([1]; 3 days incubation at 25° C): 83.5 PPM
% unhydrolyzed urea-N ([1]; 6 days incubation at 25° C): 58.73% and 58.7%
PPM urea-N ([1]; 6 days incubation at 25° C): 52 PPM

CC1(C)N(Cl)C(=O)N(Cl)C1(C)C [A, 1,3-dichloro-4,4,5,5-tetramethyl-2-imidazolidinone]
% urease inhibition ([3]; inhibitor 1.440 x 10^-8 moles/experiment): 86%
% urease inhibition ([3]; inhibitor 2.160 x 10^-8 moles/experiment): 95%
% urease inhibition ([3]; inhibitor 4.320 x 10^-8 moles/experiment): 100%
percent nitrification inhibition ([2]; separate experiment (Examples VII, IX): sampled only at end of 5-week incubation, no dicyandiamide comparison): 41.8%

CC1(C)COC(=O)N1Cl [I, 3-chloro-4,4-dimethyl-2-oxazolidinone]
% unhydrolyzed urea-N ([1]; 3 days incubation at 25° C): 82.45% and 82.4%
PPM urea-N ([1]; 3 days incubation at 25° C): 73.0 PPM
% unhydrolyzed urea-N ([1]; 6 days incubation at 25° C): 56.47% and 56.5%
PPM urea-N ([1]; 6 days incubation at 25° C): 50.0 PPM
% inhibition (nitrification) ([2]; 1 week): 74.4%
Net mg NO2N ([2]; 1 week): 0.28 mg/container
Net mg NO3N ([2]; 1 week): 5.4 mg/container
% inhibition (nitrification) ([2]; 2 weeks): 68.9%
Net mg NO2N ([2]; 2 weeks): 0.49 mg/container
Net mg NO3N ([2]; 2 weeks): 48.4 mg/container
% inhibition (nitrification) ([2]; 3 weeks): 4.9%
Net mg NO2N ([2]; 3 weeks): 0.07 mg/container
Net mg NO3N ([2]; 3 weeks): 171.3 mg/container
% inhibition (nitrification) ([2]; 4 weeks): -2.8%
Net mg NO2N ([2]; 4 weeks): 0.02 mg/container
Net mg NO3N ([2]; 4 weeks): 185.5 mg/container
% inhibition (nitrification) ([2]; 5 weeks): -1.5%
Net mg NO2N ([2]; 5 weeks): -0.01 mg/container
Net mg NO3N ([2]; 5 weeks): 187.4 mg/container
% inhibition (nitrification) ([2]; 5 weeks, listed as 3-chloro-4,4-dimethyl-2-oxazolidinone): 0%
nitrification inhibition effect ([2]; after three weeks): almost completely exhausted

CC1(C)COC(=O)N1Br [IB, 3-bromo-4,4-dimethyl-2-oxazolidinone]
% unhydrolyzed urea-N ([1]; 3 days incubation at 25° C): 65.51% and 65.5%
PPM urea-N ([1]; 3 days incubation at 25° C): 58.0 PPM
% unhydrolyzed urea-N ([1]; 6 days incubation at 25° C): 10.05% and 10.0%
PPM urea-N ([1]; 6 days incubation at 25° C): 8.9 PPM
% inhibition (nitrification) ([2]; 1 week): 100.0%
Net mg NO2N ([2]; 1 week): -0.02 mg/container
Net mg NO3N ([2]; 1 week): 0.0 mg/container
% inhibition (nitrification) ([2]; 1 week, listed as 3-bromo-4,4-dimethyl-2-oxazolidinone): 100%
% inhibition (nitrification) ([2]; 2 weeks): 100.0%
Net mg NO2N ([2]; 2 weeks): 0.06 mg/container
Net mg NO3N ([2]; 2 weeks): 0.0 mg/container
% inhibition (nitrification) ([2]; 3 weeks): 100.0%
Net mg NO2N ([2]; 3 weeks): 0.12 mg/container
Net mg NO3N ([2]; 3 weeks): 0.0 mg/container
% inhibition (nitrification) ([2]; 4 weeks): 100.0%
Net mg NO2N ([2]; 4 weeks): 0.52 mg/container
Net mg NO3N ([2]; 4 weeks): 0.0 mg/container
% inhibition (nitrification) ([2]; 5 weeks): 99.6%
Net mg NO2N ([2]; 5 weeks): 2.64 mg/container
Net mg NO3N ([2]; 5 weeks): 0.8 mg/container
Nitrite accumulation in the soil [2]: well within plant tolerance levels

N#CN=C(N)N [Dicyandiamide, dicyandiamide, reference compound]
% inhibition (nitrification) ([2]; 1 week): 78.2%
Net mg NO2N ([2]; 1 week): 0.17 mg/container
Net mg NO3N ([2]; 1 week): 4.6 mg/container
% inhibition (nitrification) ([2]; 2 weeks): 88.6%
Net mg NO2N ([2]; 2 weeks): 0.19 mg/container
Net mg NO3N ([2]; 2 weeks): 17.7 mg/container
% inhibition (nitrification) ([2]; 3 weeks): 87.4%
Net mg NO2N ([2]; 3 weeks): 0.01 mg/container
Net mg NO3N ([2]; 3 weeks): 22.7 mg/container
% inhibition (nitrification) ([2]; 4 weeks): 87.4%
Net mg NO2N ([2]; 4 weeks): 0.01 mg/container
Net mg NO3N ([2]; 4 weeks): 22.7 mg/container
% inhibition (nitrification) ([2]; 5 weeks): 90.0%
Net mg NO2N ([2]; 5 weeks): -0.02 mg/container
Net mg NO3N ([2]; 5 weeks): 18.4 mg/container
% inhibition (nitrification) ([2]; 5 weeks, listed as dicyandiamide): 90%
